Legend:
Magnaporthe grisea = test: whole plant or invertebrate; format: in vivo; settings: for Test A control value class: class of control value
Alternaia brassicicola = test: Test Example C: Alternaria sooty spot on cabbage; format: in vivo
Text: Seeds of a test plant (cabbage variety: Shikidori) were planted and cultivated until the cotyledons extended.
<Control Value> Control value=100{1−(n/3)}

Puccinia recondita = test: Test Example E: Brown rust on wheat; format: in vivo
Phytophthora infestans = test: whole plant or invertebrate; format: in vivo; settings: for Test F control value class: class of control value
Botrytis cinerea = test: Test Example B: Gray mold on tomato; settings: for Test B control value class: class of control value
Plasmopara viticola = test: Test Example G: Downy mildew on vine; settings: for Test G control value: 7 to 10 days after inoculation; for Test G control value class: Downy mildew on vine (Neomuscat), 2.5 ml/pot, assessed 7 to 10 days after inoculation
[1] = system: Colletotrichum orbiculare; test: Test Example H: Anthracnose on cucumber; settings: for Test H control value: 6 to 10 days after inoculation; for Test H control value class: Anthracnose on cucumber (Sagami Hanjiro), 2.5 ml/pot, assessed 6 to 10 days after inoculation
[2] = system: Blumeria graminis f. sp. hordei; test: Test Example D: Powdery mildew on barley; settings: for Test D control value class: class of control value
[3] = 250 ppm drug solution sprayed on test plant
[4] = 250 ppm drug solution sprayed (2.5 ml/pot), grape Neomuscat
[5] = 250 ppm drug solution sprayed (2.5 ml/pot), cucumber Sagami Hanjiro
[6] = Blast on rice, control value class
[7] = Alternaria sooty spot on cabbage, control value class
[8] = Brown rust on wheat, control value class
[9] = Late blight on tomato, control value class
[10] = Gray mold on tomato, control value class
[11] = Downy mildew on vine, 250 ppm spray
[12] = Anthracnose on cucumber, 250 ppm spray
[13] = Powdery mildew on barley, control value class
[14] = Alternaria sooty spot on cabbage, class of control value
[15] = Brown rust on wheat, class of control value

CCc1cc(Cl)c(=O)n(CC)c1-c1c(F)cc(F)cc1F [compound 386]
Test A control value (Magnaporthe grisea; [3]): H (more than 50% control value) | Test C control value (Alternaia brassicicola; [3]): H (more than 50% control value) | Test E control value (Puccinia recondita; [3]): H (more than 50% control value) | Test F control value (Phytophthora infestans; [3]): L (50% or less control value) | Test B control value (Botrytis cinerea; [3]): H (more than 50% control value) | Test G control value (Plasmopara viticola; [4]): H (more than 50% control value) | Test H control value [1, 5]: H (more than 50% control value) | Test D control value [2, 3]: H (more than 50% control value)

CCc1ccc(=O)n(C)c1-c1ccc(F)cc1Br [compound 348]
Test A control value (Magnaporthe grisea; [6]): L (50% or less control value) | Test C control value (Alternaia brassicicola; [7]): L (50% or less control value) | Test E control value (Puccinia recondita; [8]): H (more than 50% control value) | Test F control value (Phytophthora infestans; [9]): L (50% or less control value) | Test B control value (Botrytis cinerea; [10]): H (more than 50% control value) | Test G control value (Plasmopara viticola; [11]): L (50% or less control value) | Test H control value [1, 12]: L (50% or less control value) | Test D control value [2, 13]: H (more than 50% control value)

CCn1c(-c2c(O)cccc2F)c(CC(C)C)cc(Cl)c1=O [compound 101]
Test A control value class (Magnaporthe grisea; Blast on rice): L (50% or less control value) | Test C control value class (Alternaia brassicicola; [14]): L (50% or less control value) | Test E control value class (Puccinia recondita; [15]): H (more than 50% control value) | Test F control value class (Phytophthora infestans; Late blight on tomato): H (more than 50% control value) | Test B control value class (Botrytis cinerea; Gray mold on tomato): H (more than 50% control value) | Test G control value class (Plasmopara viticola; 250 ppm spray): H (more than 50% control value) | Test H control value class ([1]; 250 ppm spray): L (50% or less control value) | Test D control value class ([2]; Powdery mildew on barley): L (50% or less control value)

CCCc1ccc(=O)n(CC)c1-c1ccc(F)cc1Cl [compound 190]
Test A control value (Magnaporthe grisea; [6]): H (more than 50% control value) | Test C control value (Alternaia brassicicola; [7]): H (more than 50% control value) | Test E control value (Puccinia recondita; [8]): H (more than 50% control value) | Test F control value (Phytophthora infestans; [9]): L (50% or less control value) | Test B control value (Botrytis cinerea; [10]): H (more than 50% control value) | Test G control value (Plasmopara viticola; [11]): H (more than 50% control value) | Test H control value [1, 12]: L (50% or less control value) | Test D control value [2, 13]: H (more than 50% control value)

CCc1ccc(=O)n(CC)c1-c1ccc(OC)cc1C [compound 353]
Test A control value (Magnaporthe grisea; [6]): L (50% or less control value) | Test C control value (Alternaia brassicicola; [7]): L (50% or less control value) | Test E control value (Puccinia recondita; [8]): H (more than 50% control value) | Test F control value (Phytophthora infestans; [9]): L (50% or less control value) | Test B control value (Botrytis cinerea; [10]): L (50% or less control value) | Test G control value (Plasmopara viticola; [11]): L (50% or less control value) | Test H control value [1, 12]: L (50% or less control value) | Test D control value [2, 13]: H (more than 50% control value)

CCn1c(-c2c(F)cc(F)cc2F)c(C(C)(O)CC(C)C)cc(Cl)c1=O (centres unmarked) [compound 154]
Test A control value class (Magnaporthe grisea; Blast on rice): H (more than 50% control value) | Test C control value class (Alternaia brassicicola; [14]): H (more than 50% control value) | Test E control value class (Puccinia recondita; [15]): H (more than 50% control value) | Test F control value class (Phytophthora infestans; Late blight on tomato): L (50% or less control value) | Test B control value class (Botrytis cinerea; Gray mold on tomato): H (more than 50% control value) | Test G control value class (Plasmopara viticola; 250 ppm spray): H (more than 50% control value) | Test H control value class ([1]; 250 ppm spray): H (more than 50% control value) | Test D control value class ([2]; Powdery mildew on barley): H (more than 50% control value)

CCC1=C(c2c(F)cc(F)cc2F)N(CC)C(=O)CC1 [compound 373]
Test A control value (Magnaporthe grisea; [3]): L (50% or less control value) | Test C control value (Alternaia brassicicola; [3]): H (more than 50% control value) | Test E control value (Puccinia recondita; [3]): L (50% or less control value) | Test F control value (Phytophthora infestans; [3]): L (50% or less control value) | Test B control value (Botrytis cinerea; [3]): L (50% or less control value) | Test G control value (Plasmopara viticola; [4]): L (50% or less control value) | Test H control value [1, 5]: H (more than 50% control value) | Test D control value [2, 3]: L (50% or less control value)

CCn1c(-c2ccc(Br)cc2)c(CC(C)C)cc(Cl)c1=O [compound 177]
Test A control value class (Magnaporthe grisea; Blast on rice): L (50% or less control value) | Test C control value class (Alternaia brassicicola; [14]): H (more than 50% control value) | Test E control value class (Puccinia recondita; [15]): H (more than 50% control value) | Test F control value class (Phytophthora infestans; Late blight on tomato): L (50% or less control value) | Test B control value class (Botrytis cinerea; Gray mold on tomato): H (more than 50% control value) | Test G control value class (Plasmopara viticola; 250 ppm spray): L (50% or less control value) | Test H control value class ([1]; 250 ppm spray): L (50% or less control value) | Test D control value class ([2]; Powdery mildew on barley): L (50% or less control value)

CCn1c(-c2ccc(OCC#N)cc2F)c(CC(C)C)cc(Cl)c1=O [compound 127]
Test A control value class (Magnaporthe grisea; Blast on rice): L (50% or less control value) | Test C control value class (Alternaia brassicicola; [14]): H (more than 50% control value) | Test E control value class (Puccinia recondita; [15]): H (more than 50% control value) | Test F control value class (Phytophthora infestans; Late blight on tomato): L (50% or less control value) | Test B control value class (Botrytis cinerea; Gray mold on tomato): H (more than 50% control value) | Test G control value class (Plasmopara viticola; 250 ppm spray): H (more than 50% control value) | Test H control value class ([1]; 250 ppm spray): H (more than 50% control value) | Test D control value class ([2]; Powdery mildew on barley): H (more than 50% control value)

C#Cc1cc(Cl)c(=O)n(CC)c1-c1ccc(F)cc1Cl [compound 302]
Test A control value (Magnaporthe grisea; [6]): H (more than 50% control value) | Test C control value (Alternaia brassicicola; [7]): L (50% or less control value) | Test E control value (Puccinia recondita; [8]): H (more than 50% control value) | Test F control value (Phytophthora infestans; [9]): L (50% or less control value) | Test B control value (Botrytis cinerea; [10]): H (more than 50% control value) | Test G control value (Plasmopara viticola; [11]): L (50% or less control value) | Test H control value [1, 12]: H (more than 50% control value) | Test D control value [2, 13]: L (50% or less control value)

CCOC(C)(C)c1cc(Cl)c(=O)n(CC)c1-c1c(F)cc(F)cc1F [compound 161]
Test A control value class (Magnaporthe grisea; Blast on rice): H (more than 50% control value) | Test C control value class (Alternaia brassicicola; [14]): H (more than 50% control value) | Test E control value class (Puccinia recondita; [15]): H (more than 50% control value) | Test F control value class (Phytophthora infestans; Late blight on tomato): L (50% or less control value) | Test B control value class (Botrytis cinerea; Gray mold on tomato): H (more than 50% control value) | Test G control value class (Plasmopara viticola; 250 ppm spray): H (more than 50% control value) | Test H control value class ([1]; 250 ppm spray): H (more than 50% control value) | Test D control value class ([2]; Powdery mildew on barley): H (more than 50% control value)

CCc1cc(Cl)c(=O)n(CC)c1-c1ccc(OC)cc1Cl [compound 327]
Test A control value (Magnaporthe grisea; [6]): H (more than 50% control value) | Test C control value (Alternaia brassicicola; [7]): H (more than 50% control value) | Test E control value (Puccinia recondita; [8]): H (more than 50% control value) | Test F control value (Phytophthora infestans; [9]): H (more than 50% control value) | Test B control value (Botrytis cinerea; [10]): H (more than 50% control value) | Test G control value (Plasmopara viticola; [11]): H (more than 50% control value) | Test H control value [1, 12]: H (more than 50% control value) | Test D control value [2, 13]: L (50% or less control value)

CCn1c(-c2ccc(F)cc2Cl)c(CC(C)C)cc(Cl)c1=O [Compound No. 99, 3-chloro-6-(2-chloro-4-fluorophenyl)-1-ethyl-5-isobutylpyridin-2(1H)-one]
pest or weed control at 250 µg/mL (Magnaporthe grisea; Pyricularia oryzae, in Oryza sativa, read-out: Test A control value class): > 50% | pest or weed control at 250 µg/mL (Alternaia brassicicola; Brassica oleracea, topical, Alternaria sooty spot on cabbage, class of control value, read-out: Test C control value class): > 50% | pest or weed control at 250 µg/mL (Puccinia recondita; Puccinia recondita, topical, Brown rust on wheat, class of control value, read-out: Test E control value class): > 50% | pest or weed control at 250 µg/mL (Phytophthora infestans; Phytophthora infestans, in Solanum lycopersicum, topical, read-out: Test F control value class): > 50% | pest or weed control at 250 µg/mL (Botrytis cinerea; Botrytis cinerea, in Solanum lycopersicum, topical, read-out: Test B control value class): > 50% | pest or weed control at 250 ppm (Plasmopara viticola; Plasmopara viticola, topical, read-out: Test G control value class): > 50% | pest or weed control at 250 ppm ([1]; Colletotrichum orbiculare, in Cucumis sativus, topical, read-out: Test H control value class): > 50% | pest or weed control at 250 µg/mL ([2]; Blumeria graminis, in Hordeum vulgare, topical, read-out: Test D control value class): > 50%

CCn1c(-c2ccc(C)cc2F)c(CC(C)C)ccc1=O [compound 141]
Test A control value class (Magnaporthe grisea; Blast on rice): H (more than 50% control value) | Test C control value class (Alternaia brassicicola; [14]): H (more than 50% control value) | Test E control value class (Puccinia recondita; [15]): H (more than 50% control value) | Test F control value class (Phytophthora infestans; Late blight on tomato): L (50% or less control value) | Test B control value class (Botrytis cinerea; Gray mold on tomato): H (more than 50% control value) | Test G control value class (Plasmopara viticola; 250 ppm spray): H (more than 50% control value) | Test H control value class ([1]; 250 ppm spray): L (50% or less control value) | Test D control value class ([2]; Powdery mildew on barley): H (more than 50% control value)

CCn1c(-c2ccc(OC)cc2)c(C(C)(O)C(C)C)cc(Cl)c1=O (centres unmarked) [compound 223]
Test A control value (Magnaporthe grisea; [6]): L (50% or less control value) | Test C control value (Alternaia brassicicola; [7]): H (more than 50% control value) | Test E control value (Puccinia recondita; [8]): H (more than 50% control value) | Test F control value (Phytophthora infestans; [9]): L (50% or less control value) | Test B control value (Botrytis cinerea; [10]): H (more than 50% control value) | Test G control value (Plasmopara viticola; [11]): L (50% or less control value) | Test H control value [1, 12]: L (50% or less control value) | Test D control value [2, 13]: L (50% or less control value)

CCn1c(-c2ccc(OCOC)cc2F)c(CC(C)C)cc(Cl)c1=O [compound 122]
Test A control value class (Magnaporthe grisea; Blast on rice): H (more than 50% control value) | Test C control value class (Alternaia brassicicola; [14]): H (more than 50% control value) | Test E control value class (Puccinia recondita; [15]): H (more than 50% control value) | Test F control value class (Phytophthora infestans; Late blight on tomato): L (50% or less control value) | Test B control value class (Botrytis cinerea; Gray mold on tomato): H (more than 50% control value) | Test G control value class (Plasmopara viticola; 250 ppm spray): H (more than 50% control value) | Test H control value class ([1]; 250 ppm spray): H (more than 50% control value) | Test D control value class ([2]; Powdery mildew on barley): H (more than 50% control value)
